Assay results as given in US4857521A, “Trialkylsilyl pyridinium cephalosporin antibiotics” (Sanwa Kagaku Kenkyusho Co., Ltd., priority 1986, dated 1989).
Counter-ions that a name gives are not always drawn.

Columns and labels:
Format in all cases: cell-based
E. coli NIH = test: MIC by agar plate dilution method, E. coli NIH; settings: seeding 10^6 cells/ml; for MIC: Escherichia coli, read-out: minimum inhibitory concentration (MIC)
Protocol: (§1) Each series of dilution was prepared with use of testing compounds prepared by the Examples and control compound of Gentamicin as well as a liquid medium. The minimum inhibitory concentration (MIC in μg/ml) to each pathogen (seeding amount: 10^6 cells/ml) was determined, in accordance with the standard method (agar plate dilution method) by the Chemotherapy Society of Japan.

E. coli K-12 = test: MIC by agar plate dilution method, E. coli K-12; settings: for MIC: Escherichia coli, K12, seeding 10^6 cells/ml, read-out: minimum inhibitory concentration (MIC)
Protocol: as §1

C. fleundii NIH 10018-68 = test: MIC by agar plate dilution method, C. fleundii NIH 10018-68; settings: for MIC: read-out: minimum inhibitory concentration (MIC)
Protocol: as §1

K. pneumoniae NCTC 9632 = test: MIC by agar plate dilution method, K. pneumoniae NCTC 9632; settings: for MIC: Klebsiella pneumoniae, NCTC9632, seeding 10^6 cells/ml, read-out: minimum inhibitory concentration (MIC)
Protocol: as §1

S. typhi T-287 = test: MIC by agar plate dilution method, S. typhi T-287; settings: seeding 10^6 cells/ml; for MIC: Salmonella enterica, read-out: minimum inhibitory concentration (MIC)
Protocol: as §1

S. flexneri 2a EW-10 = test: MIC by agar plate dilution method, S. flexneri 2a EW-10; settings: Shigella flexneri, 2AEW10, seeding 10^6 cells/ml, read-out: minimum inhibitory concentration (MIC)
Protocol: as §1

P. vulgaris OX-19 = test: MIC by agar plate dilution method, P. vulgaris OX-19; settings: for MIC: Proteus vulgaris, OX19, seeding 10^6 cells/ml, read-out: minimum inhibitory concentration (MIC)
Protocol: as §1

P. rettgeri NIH 96 = test: MIC by agar plate dilution method, P. rettgeri NIH 96; settings: for MIC: Providencia rettgeri, NIH96, seeding 10^6 cells/ml, read-out: minimum inhibitory concentration (MIC)
Protocol: as §1

P. aeruginosa Nc-5 = test: MIC by agar plate dilution method, P. aeruginosa Nc-5; settings: for MIC: Pseudomonas aeruginosa, NC5, seeding 10^6 cells/ml, read-out: minimum inhibitory concentration (MIC)
Protocol: as §1

With `CO/N=C(\C(=O)N[C@@H]1C(=O)N2C(C(=O)[O-])=C(C[n+]3cccc([Si](C)(C)C)c3)CS[C@H]12)c1csc(N)n1` [Example 1, [6R-[6α,7β(Z)]]-1-[7-[[(2-Amino-4-thiazolyl)(methoxyimino)acetyl]amino]-2-carboxy-8-oxo-5-thia-1-azabicyclo[4,2,0]oct-2-en-3-yl]methyl-3-trimethylsilylpyridinium hydroxide, inner salt] the MIC (E. coli NIH) was < 0.2 µg/mL, the MIC (E. coli K-12) was 0.39 µg/mL and the MIC (C. fleundii NIH 10018-68) was < 0.2 µg/mL. For the same compound, the MIC (K. pneumoniae NCTC 9632) was 0.39 µg/mL, the MIC (S. typhi T-287) was < 0.2 µg/mL and the MIC (S. flexneri 2a EW-10) was < 0.2 µg/mL. For the same compound, the MIC (P. vulgaris OX-19) was < 0.2 µg/mL, the MIC (P. rettgeri NIH 96) was < 0.2 µg/mL and the MIC (P. aeruginosa Nc-5) was 1.56 µg/mL.
Work on `CO/N=C(\C(=O)N[C@@H]1C(=O)N2C(C(=O)[O-])=C(C[n+]3ccc(OC)c([Si](C)(C)C)c3)CS[C@H]12)c1csc(N)n1` [Example 3, [6R-[6α,7β(Z)]]-1-[7-[[(2-Amino-4-thiazolyl)(methoxyimino)acetyl]amino]-2-carboxy-8-oxo-5-thia-1-azabicyclo[4,2,0]oct-2-en-3-yl]methyl-4-methoxy-3-trimethylsilylpyridinium hydroxide, inner salt] yielded an MIC (E. coli NIH) of 0.78 µg/mL, an MIC (E. coli K-12) of 0.78 µg/mL and an MIC (C. fleundii NIH 10018-68) of 0.78 µg/mL. The MIC (K. pneumoniae NCTC 9632) was 0.78 µg/mL, the MIC (S. typhi T-287) was 0.39 µg/mL and the MIC (S. flexneri 2a EW-10) was 0.39 µg/mL. The MIC (P. vulgaris OX-19) was < 0.2 µg/mL, the MIC (P. rettgeri NIH 96) was < 0.2 µg/mL and the MIC (P. aeruginosa Nc-5) was 6.25 µg/mL.
`CO/N=C(\C(=O)N[C@@H]1C(=O)N2C(C(=O)[O-])=C(C[n+]3ccc([Si](C)(C)C)cc3)CS[C@H]12)c1csc(N)n1` [Example 2, [6R-[6α,7β(Z)]]-1-[7-[[(2-Amino-4-thiazolyl)(methoxyimino)acetyl]amino]-2-carboxy-8-oxo-5-thia-1-azabicyclo[4,2,0]oct-2-en-3-yl]methyl-4-trimethylsilylpyridinium hydroxide, inner salt] was tested, and the MIC (E. coli NIH) was < 0.2 µg/mL, the MIC (E. coli K-12) was 0.78 µg/mL and the MIC (C. fleundii NIH 10018-68) was < 0.2 µg/mL. It also gave an MIC (K. pneumoniae NCTC 9632) of 0.78 µg/mL, an MIC (S. typhi T-287) of 0.39 µg/mL and an MIC (S. flexneri 2a EW-10) of 0.39 µg/mL. The MIC (P. vulgaris OX-19) was < 0.2 µg/mL, the MIC (P. rettgeri NIH 96) was < 0.2 µg/mL and the MIC (P. aeruginosa Nc-5) was 6.25 µg/mL.
For Gentamicin [reference compound], the “minimum inhibitory concentration (MIC)” value (E. coli NIH) was 0.78 µg/mL, the “minimum inhibitory concentration (MIC)” value (E. coli K-12; seeding 10^6 cells/ml) was 0.78 µg/mL and the “minimum inhibitory concentration (MIC)” value (C. fleundii NIH 10018-68; C. fleundii NIH 10018-68, seeding 10^6 cells/ml, agar plate dilution) was 0.39 µg/mL. The “minimum inhibitory concentration (MIC)” value (K. pneumoniae NCTC 9632; seeding 10^6 cells/ml) was 0.78 µg/mL, the “minimum inhibitory concentration (MIC)” value (S. typhi T-287) was 0.78 µg/mL and the “minimum inhibitory concentration (MIC)” value (P. vulgaris OX-19; seeding 10^6 cells/ml) was 3.13 µg/mL. The “minimum inhibitory concentration (MIC)” value (P. rettgeri NIH 96; seeding 10^6 cells/ml) was < 0.20 µg/mL and the “minimum inhibitory concentration (MIC)” value (P. aeruginosa Nc-5; seeding 10^6 cells/ml) was 3.13 µg/mL.
